Data taken from patent US20240335447A1, “WEE1 INHIBITOR FOR CANCER” (Recurium IP Holdings, LLC, priority 2021, published 2024).

Legend:
H358 cells = assay: CellTiter-Glo (CTG) cell viability assay, H358 cells; assay type: cell-based; details: Homo sapiens, NCI-H358, 72 h, sotorasib 10 nM, Compound (A) 300 nM, single agent or combination of both
Experimental: (§1) 20,000 H23 cells were incubated in a 96 well plate as a triplicate with 40 nM of sotorasib or 120 nM of Compound (A) as a single agent or the combination of both for 72 h (FIG. 2). 20,000 MiaPaca-2 cells were incubated in a 96 well plate as a triplicate with 350 nM of sotorasib or 1000 nM of Compound (A) as a single agent or the combination of both for 72 h (FIG. 3). 20,000 H358 cells were incubated in a 96 well plate as a triplicate with 10 nM of sotorasib or 300 nM of Compound (A) as a single agent or the combination of both for 72 h (FIG. 4). 20,000 SW837 cells were incubated in a 96 well plate as a triplicate with 12 nM of sotorasib or 1000 nM of Compound (A) as a single agent or the combination of both for 72 h (FIG. 5). For each cell line, the cell viability was assessed using a CellTiter-Glo® (CTG) assay.

H23 cells = assay: CellTiter-Glo (CTG) cell viability assay, H23 cells; assay type: cell-based; details: Homo sapiens, NCI-H23, 72 h, sotorasib 40 nM, Compound (A) 120 nM, single agent or combination of both
Experimental: as §1

SW1463 cells = assay: SW1463 subcutaneous xenograft, tumor growth; assay type: in vivo, Mice; details: Compound (A) 80 mg/kg p.o. qd x21, sotorasib 30 mg/kg p.o.
Experimental: Mice were inoculated with SW1463 cells subcutaneously on the right flank with the single cell suspension of 95% viable tumor cells (1×10^7) in 100 μL L-15 Matrigel mixture (1:1 ratio) without serum for the tumor development. The treatment was started when the mean tumor size reached approximately 200 mm^3 (with individual tumor range between 180-220 mm^3). Animals were randomly distributed into treatment groups of 8 animals each and dosed with vehicle (top line indicated with circles) and indicated compounds at indicated dosage and frequency shown in FIG. 11 and Table 10. In FIG. 11, single agent activity was shown with Compound (A) and sotorasib at the indicated doses, and the bottom line is Compound (A) 80 mg/kg p.o. qd×21+sotorasib 30 mg/kg p.o. pd×21.
Tumor volumes were evaluated twice per week to calculate tumor volume over time, and mice were weighed twice per week as a surrogate for signs of toxicity. Tumor growth inhibition (TGI) was calculated using the following equation TGI=(1−(Td−T0)/(Cd−C0))×100%. Td and Cd are the mean tumor volumes of the treated and control animals, and T0 and C0 are the mean tumor volumes of the treated and control animals at the start of the experiment. The tumor regression was defined as (1−(Td/T0))×100% tumor volume (TV) decrease (Td terminal TV divided by T0 initial TV). […]

MiaPaca-2 cells [1] = assay: MiaPaca-2 subcutaneous xenograft, tumor growth; assay type: in vivo, Mice; details: MiaPaca-2 xenograft, Compound (A) 80 mg/kg p.o. qd x21, sotorasib 10 mg/kg or MRTX849 10 mg/kg p.o.
Experimental: Tumor volumes were evaluated twice per week to calculate tumor volume over time, and mice were weighed twice per week as a surrogate for signs of toxicity. Tumor growth inhibition (TGI) was calculated using the following equation TGI=(1−(Td−T0)/(Cd−C0))×100%. Td and Cd are the mean tumor volumes of the treated and control animals, and T0 and C0 are the mean tumor volumes of the treated and control animals at the start of the experiment.

LoVo tumor cells = assay: colorectal cancer LoVo xenograft model (KRAS mutant); assay type: in vivo, BALB/c nude mice
Experimental: (§2) The antitumor activity of Compound (A) was assessed using the colorectal cancer LoVo xenograft model (KRAS mutant) with BALB/c nude mice. Each mouse was inoculated on the right flank subcutaneously with 5×10^6/100 μL LoVo tumor cells for the tumor development. When the mean tumor size reached 207 mm^3, animals were randomized into 4 groups (10 animals/group), and the treatments were initiated according to Table 4.
(§3) Study endpoints included daily body weight, clinical observations and tumor volume.

SW1116 tumor cells = assay: colorectal cancer SW1116 xenograft model (TP53 mutant; KRAS mutant); assay type: in vivo
Experimental: as §2, with “SW1116” for “LoVo”, “(TP53 mutant; KRAS” for “(KRAS”, “NOD/SCID” for “BALB/c”, “1×10^7 (+High Concentration Matrigel)/200” for “5×10^6/100”, “229” for “207”, “6.” for “4.”
as §3

MiaPaca-2 cells [2] = assay: CellTiter-Glo (CTG) cell viability assay, MiaPaca-2 cells; assay type: cell-based; details: Homo sapiens, MIA PaCa-2, 72 h, sotorasib 350 nM, Compound (A) 1000 nM, single agent or combination of both
Experimental: as §1

SW837 cells [3] = assay: SW837 subcutaneous xenograft, tumor growth; assay type: in vivo, Mice; details: Compound (A) 60 mg/kg p.o. qd x18, sotorasib 30 mg/kg p.o.
Experimental: Mice were inoculated with SW837 cells subcutaneously on the right flank with the single cell suspension of 95% viable tumor cells (1×10^7) in 100 μL L-15 Matrigel mixture (1:1 ratio) without serum for the tumor development. The treatment was started when the mean tumor size reached approximately 200 mm^3 (with individual tumor range between 180-220 mm^3). Animals were randomly distributed into treatment groups of 8 animals each and dosed with vehicle (top line indicated with circles) and indicated compounds at indicated dosage and frequency shown in FIG. 6 and Table 3. In FIG. 6, single agent activity was shown with Compound (A) and sotorasib at the indicated doses. In addition, the bottom line is Compound (A) 60 mg/kg p.o. qd×18+sotorasib 30 mg/kg p.o. pd×18. […] Tumor volumes were evaluated twice per week to calculate tumor volume over time, and mice were weighed twice per week as a surrogate for signs of toxicity. Tumor growth inhibition (TGI) was calculated using the following equation TGI=(1−(Td−T0)/(Cd−C0))×100%. Td and Cd are the mean tumor volumes of the treated and control animals, and T0 and C0 are the mean tumor volumes of the treated and control animals at the start of the experiment. The tumor regression was defined as (1−(Td/T0))×100% tumor volume (TV) decrease (Td terminal TV divided by T0 initial TV). […]

SW837 cells [4] = assay: CellTiter-Glo (CTG) cell viability assay, SW837 cells; assay type: cell-based; details: Homo sapiens, 72 h, sotorasib 12 nM, Compound (A) 1000 nM, single agent or combination of both
Experimental: as §1

| Compound | inhibition at 0.3 µM (H358 cells) [%] | inhibition at 0.12 µM (H23 cells) [%] | TGI % (DAY 21) (SW1463 cells) [%] | TGI % (DAY 21) (MiaPaca-2 cells [1]) [%] | TGI (%) (LoVo tumor cells; 40 mg/kg/day p.o. qd x 28) | TGI (%) (LoVo tumor cells; 60 mg/kg/day p.o. qd x 28) | TGI (%) (LoVo tumor cells; 80 mg/kg/day p.o. qd x 28) | mean body weights (LoVo tumor cells; 40, 60, 80 mg/kg/day) | clinical observations (LoVo tumor cells; any dose group (40, 60, 80 mg/kg/day)) | TGI (%) (SW1116 tumor cells; 40 mg/kg/day p.o. qd x 28) | TGI (%) (SW1116 tumor cells; 60 mg/kg/day p.o. qd x 28) | TGI (%) (SW1116 tumor cells; 80 mg/kg/day p.o. qd x 28) | tolerability (SW1116 tumor cells; 40, 60, 80 mg/kg/day) | inhibition at 1 µM (MiaPaca-2 cells [2]) [%] | TGI % (DAY 18) (SW837 cells [3]) [%] | inhibition at 1 µM (SW837 cells [4]) [%] | inhibition at 0.01 µM (H358 cells) [%] | inhibition at 0.04 µM (H23 cells) [%] | inhibition at 0.35 µM (MiaPaca-2 cells [2]) [%] | inhibition at 0.012 µM (SW837 cells [4]) [%] |
| --- | --- | --- | --- | --- | --- | --- | --- | --- | --- | --- | --- | --- | --- | --- | --- | --- | --- | --- | --- | --- |
| C=CCn1c(=O)c2cnc(Nc3ccc(N4CCN(C)CC4)cc3)nc2n1-c1ccc2c(n1)[C@@](O)(CC)CC2 [Compound (A)] | 31.5 | 16.5 | 57 | 50 | 21.4 | 32.1 | 70.3 | no significant impact of treatments on mean body weights | no adverse clinical observations | 49.0 | 75.1 | 98.5 | generally well tolerated for the majority of study animals | 47 | 72 | 28.8 | – | – | – | – |
| C=CC(=O)N1CCN(c2nc(=O)n(-c3c(C)ccnc3C(C)C)c3nc(-c4c(O)cccc4F)c(F)cc23)[C@@H](C)C1 [sotorasib, reference compound] | – | – | 73 | 81 | – | – | – | – | – | – | – | – | – | – | 80 | – | 24 | 27.8 | 39 | 20.7 |
